From article PMC6024615, “Effect of Biliary Drainage on the Toxicity and Toxicokinetics of Amanita exitialis in Beagles” (Toxins, 2018)
Read-outs that look alike come from different tables or passages of the source.

What was measured:
[1] = Peptide toxins in the bile of beagles with biliary drainage; format: in vivo, beagle dogs; details: for Accumulated amounts excreted in bile / percentage of total bile excretion, Accumulated amounts: 0–4 days; for ratio of peptide toxins in bile to excretion in urine and bile: mean ± SD
Protocol: The study was approved by National Institute of Occupational Health and Poison Control review board for animal experiments. Twenty-four male beagles (age, 8–10 months; weight, 10 ± 1 kg) were obtained from Beijing Institute of Xieerxin Biology Resource (Beijing, China). They were randomly divided into four groups of six animals each: control, biliary drainage, and 20 and 60 mg/kg with biliary drainage groups. The biliary drainage operation was conducted in all groups barring the control group. The dogs were dressed in homemade underwear, coats, and Elizabeth circles for a week to ensure pre-experimental acclimatization (Figure S8a–c). After determining the baseline values for biochemical indicators, the dogs were fasted for 24 h but received water ad libitum. They were anesthetized by intravenous administration of pentobarbital sodium (3%, 1 mL/kg) during the surgery. A temperature of 38–39 °C was maintained with a warming mat. After skin preservation and sterilization, the abdominal cavity was opened through the central abdomen. The abdomen was explored and blunt dissection of the common bile duct was performed (Figure S8d). The common bile duct and its branches were ligated from the intestinal side. A 7.0-Fr drainage catheter (COOK, Bloomington, IN, USA) was percutaneously inserted into the gallbladder, and a medical drainage bag was connected to the drainage catheter coming out of the abdominal cavity. Each opened layer, including the peritoneum, abdominal wall muscle, and skin, was closed with suture. The operative incision was protected with sterile gauze and a bandage, and the dogs were dressed in homemade underwear, coats, and Elizabeth circles. The drainage bag was placed in the pocket of the coat (Figure S8e). After the anesthetic wore off, the dogs were placed in cages, and food and water were provided ad libitum. The operative incision was sterilized with iodophor twice a day until stitches were removed six days after surgery. The drainage bag was replaced every day. On the eighth day after surgery, the 20 and 60 mg/kg with biliary drainage groups were orally administered a lyophilized powder of Amanita exitialis in starch capsules. In control and bile drainage group, the beagle dogs were fed with empty capsules. Immediately after dosing, the animals were placed in their cages, and food and water were provided ad libitum. Dogs were sacrificed with an overdose of sodium pentobarbital at the end of the experiment. All procedures were performed according to the ethical standards of the National Institutes of Health Guide for Animal Welfare and approved by the Institutional Animal Care and Use Committee (EAWE-2017-005).
Peptide toxins in blood and urine samples were analyzed as described previously. Bile samples from Days 0–1, Days 1–2, Days 2–3, and Days 3–4 were collected and stored in medical drainage bags and the bile volume was recorded. Plasma and urine samples were stored at 2–8 °C until analysis for peptide toxins.
α-Amanitin, β-amanitin, γ-amanitin, and phallacidin were used as the standard reference materials. Aliquots (0.2 mL) of bile samples were transferred into 2-mL polypropylene centrifuge tubes in duplicates. Next, 1 mL of acetonitrile was added to each tube. After vortex-mixing for 1 min, each sample was sonicated for 30 min and centrifuged at 11,200× g for 10 min at 4 °C. The supernatants were loaded on solid-phase extraction columns (Oasis PRiME HLB, 60 mg, 3 cc). The columns were then washed with 3 mL of methanol/ultrapure water (v/v: 5/95). The eluent was evaporated in a stream of nitrogen at room temperature. The dry residue was dissolved in 0.2 mL of ultrapure water and analyzed by UPLC-ESI-MS/MS.
UPLC and MS/MS parameters were as described in our previous study. The limit of detection and limit of quantitation of each toxin in the bile were 0.03 mg/kg and 0.5 mg/kg, respectively.

[2] = cited from earlier work
Protocol: The difference in detectable time in the urine can be explained by the low level of internal exposure (amatoxins in the blood). […] The daily amounts of peptide toxins excreted in urine in beagles without biliary drainage(mg). Time after α-Amanitin β-Amanitin Phallacidin ingestion 20 mg/kg 60 mg/kg 20 mg/kg 60 mg/kg 20 mg/kg 60 mg/kg group group group group group group 0-1d 0.0379 0.0593 0.0156 0.0251 0.0035 0.0088 (97.9%) (92.8%) (99.9%) (94.7%) (94.2%) (76%) 1-2d 0.0388 0.0618 0.01567 0.0255 0.0037 0.0110 (99.995%) (97.5%) (100%) (96.2%) (100%) (93%) 2-3d 0.0002 0.0626 0 0.0260 0 0.0115 (100%) (99.4%) (100%) (98.2%) (100%) (97.3%) 3-4d 0 0.063 ...

[3] = 0–1 days, 20 mg/kg with biliary drainage group
[4] = 0–1 days, 60 mg/kg with biliary drainage group
[5] = 20 mg/kg with biliary drainage group
[6] = 60 mg/kg with biliary drainage group
[7] = 1-2 d, 20 mg/kg with biliary drainage group
[8] = 1-2 d, 60 mg/kg with biliary drainage group
[9] = 1–2 days, 20 mg/kg with biliary drainage group
[10] = 1–2 days, 60 mg/kg with biliary drainage group
[11] = 2-3 d, 20 mg/kg with biliary drainage group
[12] = 2-3 d, 60 mg/kg with biliary drainage group
[13] = 2–3 days, 20 mg/kg with biliary drainage group
[14] = 2–3 days, 60 mg/kg with biliary drainage group
[15] = 3-4d, 20 mg/kg with biliary drainage group
[16] = 3-4d, 60 mg/kg with biliary drainage group
[17] = 3–4 days, 20 mg/kg with biliary drainage group
[18] = 3–4 days, 60 mg/kg with biliary drainage group

CC[C@H](C)[C@@H]1NC(=O)CNC(=O)[C@@H]2Cc3c([nH]c4cc(O)ccc34)[S@+]([O-])C[C@H](NC(=O)CNC1=O)C(=O)N[C@@H](CC(N)=O)C(=O)N1C[C@H](O)C[C@H]1C(=O)N[C@@H]([C@@H](C)[C@@H](O)CO)C(=O)N2 [α-amanitin]
detection rate of peptide toxins in bile ([1]; 0-1 d, 60 mg/kg with biliary drainage group): 83%
daily amount excreted in bile [1, 3]: 0.00007 mg
percentage of total bile excretion excreted daily [1, 3]: 100%
daily amount excreted in bile [1, 4]: 0.00061 mg
percentage of total bile excretion excreted daily [1, 4]: 100%
Accumulated amounts excreted in bile [1, 5]: 0.00007 mg
percentage of total bile excretion, Accumulated amounts [1, 5]: 100%
Accumulated amounts excreted in bile [1, 6]: 0.00061 mg
percentage of total bile excretion, Accumulated amounts [1, 6]: 100%
ratio of peptide toxins in bile to excretion in urine and bile [1, 5]: less than 10%
ratio of peptide toxins in bile to excretion in urine and bile ([1]; 20 mg/kg with biliary drainage group, listed as α-Amanitin): 1.3 ± 2.4%
ratio of peptide toxins in bile to excretion in urine and bile [1, 6]: less than 20%
ratio of peptide toxins in bile to excretion in urine and bile ([1]; 60 mg/kg with biliary drainage group, listed as α-Amanitin): 3.1 ± 2.5%
detection rate of peptide toxins in bile [1, 7]: 0%
toxin concentration in bile [1, 7]: 0 µg/L
detection rate of peptide toxins in bile [1, 8]: 0%
toxin concentration in bile [1, 8]: 0 µg/L
daily amount excreted in bile [1, 9]: 0(0%) mg
percentage of total bile excretion excreted daily [1, 9]: 0(0%)
daily amount excreted in bile [1, 10]: 0(0%) mg
percentage of total bile excretion excreted daily [1, 10]: 0(0%)
detection rate of peptide toxins in bile [1, 11]: 0%
toxin concentration in bile [1, 11]: 0 µg/L
detection rate of peptide toxins in bile [1, 12]: 0%
toxin concentration in bile [1, 12]: 0 µg/L
daily amount excreted in bile [1, 13]: 0(0%) mg
percentage of total bile excretion excreted daily [1, 13]: 0(0%)
daily amount excreted in bile [1, 14]: 0(0%) mg
percentage of total bile excretion excreted daily [1, 14]: 0(0%)
detection rate of peptide toxins in bile [1, 15]: 0%
toxin concentration in bile [1, 15]: 0 µg/L
detection rate of peptide toxins in bile [1, 16]: 0%
toxin concentration in bile [1, 16]: 0 µg/L
daily amount excreted in bile [1, 17]: 0(0%) mg
percentage of total bile excretion excreted daily [1, 17]: 0(0%)
daily amount excreted in bile [1, 18]: 0(0%) mg
percentage of total bile excretion excreted daily [1, 18]: 0(0%)
daily amount excreted in urine, without biliary drainage ([2]; 0-1d, 20 mg/kg group): 0.0379 mg
percentage in parentheses, urine, without biliary drainage ([2]; 0-1d, 20 mg/kg group): 97.9%
daily amount excreted in urine, without biliary drainage ([2]; 0-1d, 60 mg/kg group): 0.0593 mg
percentage in parentheses, urine, without biliary drainage ([2]; 0-1d, 60 mg/kg group): 92.8%
Accumulative amount excreted in urine, without biliary drainage ([2]; 20 mg/kg group): 0.039 mg
percentage in parentheses, Accumulative amount, urine, without biliary drainage ([2]; 20 mg/kg group): 100%
Accumulative amount excreted in urine, without biliary drainage ([2]; 20 mg/kg group, listed as α-Amanitin): 0.0390 mg
Accumulative amount excreted in urine, without biliary drainage ([2]; 60 mg/kg group): 0.0630 mg
percentage in parentheses, Accumulative amount, urine, without biliary drainage ([2]; 60 mg/kg group): 100%
percentage in parentheses, urine, without biliary drainage ([2]; 1-2d, 20 mg/kg group): 99.995%
daily amount excreted in urine, without biliary drainage ([2]; 1-2d, 60 mg/kg group): 0.0618 mg
percentage in parentheses, urine, without biliary drainage ([2]; 1-2d, 60 mg/kg group): 97.5%
daily amount excreted in urine, without biliary drainage ([2]; 2-3d, 20 mg/kg group): 0.0002 mg
percentage in parentheses, urine, without biliary drainage ([2]; 2-3d, 20 mg/kg group): 100%
daily amount excreted in urine, without biliary drainage ([2]; 2-3d, 60 mg/kg group): 0.0626 mg
percentage in parentheses, urine, without biliary drainage ([2]; 2-3d, 60 mg/kg group): 99.4%
daily amount excreted in urine, without biliary drainage ([2]; 3-4d, 20 mg/kg group): 0 mg
percentage in parentheses, urine, without biliary drainage ([2]; 3-4d, 20 mg/kg group): 100%
daily amount excreted in urine, without biliary drainage ([2]; 3-4d, 60 mg/kg group): 0.0630 mg
percentage in parentheses, urine, without biliary drainage ([2]; 3-4d, 60 mg/kg group): 100%
